Results on 16 compounds are retold here after patent publication US20210221832A1, “SUBSTITUTED PYRIDOINDOLES FOR THE TREATMENT AND PROPHYLAXIS OF BACTERIAL INFECTION” (Hoffmann-La Roche Inc., priority 2018, published 2021).

≈ marks a conversion by molar mass, not a printed value.

The first data set in a line: Plasma stability assay in mouse plasma. The format is in vitro ADME, CD-1 mouse. The following applies: 10 μM prodrug, 37° C., prodrug remaining at 30 min compared to 0 min. The protocol:
(§1) The degradation of prodrug and formation of active drug of present invention were monitored by current plasma stability assay. The assay is conducted in human plasma (purchased from Bioreclamation, Lot No. BRH1380385) or mouse plasma (prepared in-house using CD-1 mouse purchased from Vital River). Plasma is spiked with the test prodrug (10 μM final concentration) dissolved in DMSO (or water) and incubated at 37° C. Aliquots are removed at 0, 5, 15 and 30 minutes of incubation time, quenched with appropriate volume of internal standard solution (I.S., 0.2 μM of tolbutamide, prepared in ACN and water (1:1, v/v)), according to the mass spectrometer intensity of both analytes. Samples are centrifuged, the supernatant are removed and analyzed by LC-MS/MS. The degradation of prodrug was illustrated by calculation of percent remaining of prodrug at 30 min compared to that at 0 min (Table 2).
On to `CNc1cc(F)c(C#N)c2c1[nH]c1ncc(-c3cnc4c(c3)c(=O)c(C(=O)OCc3oc(=O)oc3C)cn4C)c(N3CC[C@H]4CN(C)C[C@H]43)c12` [Example 1.13, (5-Methyl-2-oxo-1,3-dioxol-4-yl)methyl 6-[5-cyano-6-fluoro-8-(methylamino)-4-[(3aS,6aS)-5-methyl-2,3,3a,4,6,6a-hexahydropyrrolo[2,3-c]pyrrol-1-yl]-9H-pyrido[2,3-b]indol-3-yl]-1-methyl-4-oxo-1,8-naphthyridine-3-carboxylate], for which the “Percent Remaining (%) M” value is on record as 0.6%.

Take `CC(=O)OC(C)OC(=O)N(C)c1cc(F)c(C#N)c2c1[nH]c1ncc(-c3cnc4c(c3)c(=O)c(C(=O)O)cn4C)c(N3CC[C@H]4CN(C)C[C@H]43)c12` (stereo partly drawn) [Example 1.15, 6-[8-[1-Acetoxyethoxycarbonyl(methyl)amino]-5-cyano-6-fluoro-4-[(3aS,6aS)-5-methyl-2,3,3a,4,6,6a-hexahydropyrrolo[2,3-c]pyrrol-1-yl]-9H-pyrido[2,3-b]indol-3-yl]-1-methyl-4-oxo-1,8-naphthyridine-3-carboxylic acid]: the “Percent Remaining (%) M” value amounted to 4.7%.

For the compound `CN1C[C@H]2CCN(c3c(-c4cnc5c(c4)c(=O)c(C(=O)O)cn5C)cnc4[nH]c5c(N(C)C(=O)OCOP(=O)(O)O)cc(F)c(F)c5c34)[C@H]2C1` [Example 1.18, 6-[5,6-Difluoro-8-[methyl(phosphonooxymethoxycarbonyl)amino]-4-[(3aR,6aR)-5-methyl-2,3,3a,4,6,6a-hexahydropyrrolo[2,3-c]pyrrol-1-yl]-9H-pyrido[2,3-b]indol-3-yl]-1-methyl-4-oxo-1,8-naphthyridine-3-carboxylic acid], the “Percent Remaining (%) M” value was 72.0%.

Another data set is described as follows: Lyophilisation Solubility Assay (LYSA). The format is physicochemical. Particulars: aqueous buffer, thermodynamic from solid; 0.05 M phosphate buffer, pH 6.5. The protocol:
The solubility of compounds of present invention was assessed by LYSA assay. Samples were prepared in duplicate from 10 mM DMSO stock solutions (20 μL) diluted in 30 μL pure DMSO. After evaporation of DMSO with a centrifugal vacuum evaporator, the residue was dissolved in 0.05 M phosphate buffer (150 μL, pH 6.5), which was stirred for one hour and shook for two hours. After one night, the solution was filtered using a microtiter filter plate. Then the filtrate and its 1/10 dilution were analyzed by HPLC-UV. In addition, a four-point calibration curve was prepared from the 10 mM stock solutions and used for the solubility determination of the compounds.
In turn, `CN1C[C@@H]2CCN(c3c(-c4cnc5c(c4)c(=O)c(C(=O)O)cn5C)cnc4[nH]c5c(N(C)C(=O)OCOP(=O)(O)O)cc(F)c(C#N)c5c34)[C@@H]2C1` [Example 1.01, 6-[5-Cyano-6-fluoro-8-[methyl(phosphonooxymethoxycarbonyl)amino]-4-[(3aS,6aS)-5-methyl-2,3,3a,4,6,6a-hexahydropyrrolo[2,3-c]pyrrol-1-yl]-9H-pyrido[2,3-b]indol-3-yl]-1-methyl-4-oxo-1,8-naphthyridine-3-carboxylic acid] had a solubility above 595 µg/mL.

The compound `CN1C[C@@H]2CCN(c3c(-c4cnc5c(c4)c(=O)c(C(=O)O)cn5C)cnc4[nH]c5c(N(C)C=O)cc(F)c(C#N)c5c34)[C@@H]2C1` [Example 1.03, 6-[5-Cyano-6-fluoro-8-[formyl(methyl)amino]-4-[(3aS,6aS)-5-methyl-2,3,3a,4,6,6a-hexahydropyrrolo[2,3-c]pyrrol-1-yl]-9H-pyrido[2,3-b]indol-3-yl]-1-methyl-4-oxo-1,8-naphthyridine-3-carboxylic acid] had a solubility above 730 µg/mL.

For the compound `CNc1cc(F)c(C#N)c2c1[nH]c1ncc(-c3cnc4c(c3)c(=O)c(C(=O)O)cn4C)c(N3CC[C@H]4C[N+](C)(COP(=O)(O)O)C[C@H]43)c12` (stereo partly drawn) [Example 1.07, 6-[5-Cyano-6-fluoro-8-(methylamino)-4-[(3aS,6aS)-5-methyl-5-(phosphonooxymethyl)-2,3,3a,4,6,6a-hexahydropyrrolo[2,3-c]pyrrol-5-ium-1-yl]-9H-pyrido[2,3-b]indol-3-yl]-1-methyl-4-oxo-1,8-naphthyridine-3-carboxylic acid], the solubility was above 1060 µg/mL.

With `CN1C[C@@H]2CCN(c3c(-c4cnc5c(c4)c(=O)c(C(=O)O)cn5C)cnc4[nH]c5c(N(C)C=O)cc(F)c(F)c5c34)[C@@H]2C1` [Example 1.26, 6-[5,6-Difluoro-8-[formyl(methyl)amino]-4-[(3aS,6aS)-5-methyl-2,3,3a,4,6,6a-hexahydropyrrolo[2,3-c]pyrrol-1-yl]-9H-pyrido[2,3-b]indol-3-yl]-1-methyl-4-oxo-1,8-naphthyridine-3-carboxylic acid], the solubility was above 783 µg/mL.

Compound `CN1C[C@@H]2CCN(c3c(-c4cnc5c(c4)c(=O)c(C(=O)O)cn5C)cnc4[nH]c5c(N(C)S(=O)(=O)O)cc(F)c(F)c5c34)[C@@H]2C1` [Example 1.27, 6-[5,6-Difluoro-8-[methyl(sulfo)amino]-4-[(3aS,6aS)-5-methyl-2,3,3a,4,6,6a-hexahydropyrrolo[2,3-c]pyrrol-1-yl]-9H-pyrido[2,3-b]indol-3-yl]-1-methyl-4-oxo-1,8-naphthyridine-3-carboxylic acid] showed a solubility above 685 µg/mL.

The compound `CN1C[C@@H]2CCN(c3c(-c4cnc5c(c4)c(=O)c(C(=O)O)cn5C)cnc4[nH]c5c(N(C)C(=O)OCOC(=O)/C=C/C(=O)O)cc(F)c(F)c5c34)[C@@H]2C1` [Example 1.28, 6-[5,6-Difluoro-8-[methyl-[[(E)-3-carboxyprop-2-enoyl]oxymethoxycarbonyl]amino]-4-[(3aS,6aS)-5-methyl-2,3,3a,4,6,6a-hexahydropyrrolo[2,3-c]pyrrol-1-yl]-9H-pyrido[2,3-b]indol-3-yl]-1-methyl-4-oxo-1,8-naphthyridine-3-carboxylic acid] had a solubility above 945 µg/mL.

As to `CN1C[C@@H]2CCN(c3c(-c4ccc5ccc(C(=O)O)c(=O)n5c4)cnc4[nH]c5c(N(C)C(=O)OCOP(=O)(O)O)cc(F)c(F)c5c34)[C@@H]2C1` [Example 1.32, 7-[5,6-Difluoro-8-[methyl(phosphonooxymethoxycarbonyl)amino]-4-[(3aS,6aS)-5-methyl-2,3,3a,4,6,6a-hexahydropyrrolo[2,3-c]pyrrol-1-yl]-9H-pyrido[2,3-b]indol-3-yl]-4-oxo-quinolizine-3-carboxylic acid], the solubility was above 875 µg/mL.

`CN1C[C@@H]2CCN(c3c(-c4ccc5ccc(C(=O)O)c(=O)n5c4)cnc4[nH]c5c(N(C)C(=O)OCOC(=O)/C=C/C(=O)O)cc(F)c(F)c5c34)[C@@H]2C1` [Example 1.33, 7-[5,6-Difluoro-8-[methyl-[[(E)-3-carboxyprop-2-enoyl]oxymethoxycarbonyl]amino]-4-[(3aS,6aS)-5-methyl-2,3,3a,4,6,6a-hexahydropyrrolo[2,3-c]pyrrol-1-yl]-9H-pyrido[2,3-b]indol-3-yl]-4-oxo-quinolizine-3-carboxylic acid] yielded a solubility of 680 µg/mL (≈ 949 µM).

`CN1C[C@@H]2CCN(c3c(-c4ccc5ccc(C(=O)O)c(=O)n5c4)cnc4[nH]c5c(N(C)C(=O)CNC(=O)CNC(=O)CN)cc(F)c(F)c5c34)[C@@H]2C1` [Example 1.34, 7-[8-[[2-[[2-[(2-Aminoacetyl)amino]acetyl]amino]acetyl]-methyl-amino]-5,6-difluoro-4-[(3aS,6aS)-5-methyl-2,3,3a,4,6,6a-hexahydropyrrolo[2,3-c]pyrrol-1-yl]-9H-pyrido[2,3-b]indol-3-yl]-4-oxo-quinolizine-3-carboxylic acid] had a solubility above 930 µg/mL.

Turning to `CN1C[C@@H]2CCN(c3c(-c4ccc5ccc(C(=O)O)c(=O)n5c4)cnc4[nH]c5c(N(C)C(=O)CNC(=O)CN)cc(F)c(F)c5c34)[C@@H]2C1` [Example 1.35, 7-[8-[[2-[(2-Aminoacetyl)amino]acetyl]-methyl-amino]-5,6-difluoro-4-[(3aS,6aS)-5-methyl-2,3,3a,4,6,6a-hexahydropyrrolo[2,3-c]pyrrol-1-yl]-9H-pyrido[2,3-b]indol-3-yl]-4-oxo-quinolizine-3-carboxylic acid], the solubility was above 915 µg/mL.

`CNc1cc(F)c(F)c2c3c(N4CC[C@H]5CN(C)C[C@H]54)c(-c4ccc5ccc(C(=O)O)c(=O)n5c4)cn(COP(=O)(O)O)c-3nc12` [Example 1.36, 7-[5,6-Difluoro-8-(methylamino)-1-(phosphonooxymethyl)-4-[(3aS,6aS)-5-methyl-2,3,3a,4,6,6a-hexahydropyrrolo[2,3-c]pyrrol-1-yl]pyrido[2,3-b]indol-3-yl]-4-oxo-quinolizine-3-carboxylic acid] returned a solubility above 1000 µg/mL.

Compound `CNc1cc(F)c(F)c2c1[nH]c1ncc(-c3ccc4ccc(C(=O)OCCOC(=O)[C@@H](N)C(C)C)c(=O)n4c3)c(N3CC[C@H]4CN(C)C[C@H]43)c12` [Example 1.37, 2-[(2S)-2-Amino-3-methyl-butanoyl]oxyethyl 7-[5,6-difluoro-8-(methylamino)-4-[(3aS,6aS)-5-methyl-2,3,3a,4,6,6a-hexahydropyrrolo[2,3-c]pyrrol-1-yl]-9H-pyrido[2,3-b]indol-3-yl]-4-oxo-quinolizine-3-carboxylate] registered a solubility of 315 µg/mL (≈ 458 µM).

Take `CN1C[C@@H]2CCN(c3c(-c4cnc5c(c4)c(=O)c(C(=O)O)cn5C)cnc4[nH]c5c(N(C)C(=O)OCOP(=O)(O)O)cc(F)c(F)c5c34)[C@@H]2C1` [Example 1.43, 6-[5,6-Difluoro-8-[methyl(phosphonooxymethoxycarbonyl)amino]-4-[(3aS,6aS)-5-methyl-2,3,3a,4,6,6a-hexahydropyrrolo[2,3-c]pyrrol-1-yl]-9H-pyrido[2,3-b]indol-3-yl]-1-methyl-4-oxo-1,8-naphthyridine-3-carboxylic acid]: the solubility amounted to 595 µg/mL (≈ 834 µM).

A further data set can be described thus: Plasma stability assay in human plasma. The format is in vitro ADME. Particulars: 10 μM prodrug, 37° C., prodrug remaining at 30 min compared to 0 min. The procedure:
as §1
Take `CNc1cc(F)c(C#N)c2c1[nH]c1ncc(-c3cnc4c(c3)c(=O)c(C(=O)OCc3oc(=O)oc3C)cn4C)c(N3CC[C@H]4CN(C)C[C@H]43)c12` [Example 1.13, (5-Methyl-2-oxo-1,3-dioxol-4-yl)methyl 6-[5-cyano-6-fluoro-8-(methylamino)-4-[(3aS,6aS)-5-methyl-2,3,3a,4,6,6a-hexahydropyrrolo[2,3-c]pyrrol-1-yl]-9H-pyrido[2,3-b]indol-3-yl]-1-methyl-4-oxo-1,8-naphthyridine-3-carboxylate]: the “Percent Remaining (%) H” value is given as 1.9%.

As to `CC(=O)OC(C)OC(=O)N(C)c1cc(F)c(C#N)c2c1[nH]c1ncc(-c3cnc4c(c3)c(=O)c(C(=O)O)cn4C)c(N3CC[C@H]4CN(C)C[C@H]43)c12` (stereo partly drawn) [Example 1.15, 6-[8-[1-Acetoxyethoxycarbonyl(methyl)amino]-5-cyano-6-fluoro-4-[(3aS,6aS)-5-methyl-2,3,3a,4,6,6a-hexahydropyrrolo[2,3-c]pyrrol-1-yl]-9H-pyrido[2,3-b]indol-3-yl]-1-methyl-4-oxo-1,8-naphthyridine-3-carboxylic acid], the “Percent Remaining (%) H” value came out at 50.5%.

In the case of `CN1C[C@H]2CCN(c3c(-c4cnc5c(c4)c(=O)c(C(=O)O)cn5C)cnc4[nH]c5c(N(C)C(=O)OCOP(=O)(O)O)cc(F)c(F)c5c34)[C@H]2C1` [Example 1.18, 6-[5,6-Difluoro-8-[methyl(phosphonooxymethoxycarbonyl)amino]-4-[(3aR,6aR)-5-methyl-2,3,3a,4,6,6a-hexahydropyrrolo[2,3-c]pyrrol-1-yl]-9H-pyrido[2,3-b]indol-3-yl]-1-methyl-4-oxo-1,8-naphthyridine-3-carboxylic acid], the “Percent Remaining (%) H” value stood at 67.2%.

The solubility is the concentration that dissolves in the medium under given conditions. Higher therefore signals much dissolved substance.
